Experimental data reported in patent publication US20080113016A1, “Method for Prevention or Treatment of Inflammatory Disease” (priority 2004, published 2008).
“Also recorded” adds a separate entry of the source. Where two headings read alike, the source gives them in different places. Marks after values point to notes of the source that are not given here.

Legend:
spinal nerve ligation = conditions: administered intrathecally before spinal nerve ligation, cited from earlier work
[1] = system: rats with adjuvant arthritis; test: Adjuvant arthritis: radiographic joint damage, semiquantitative score; type: in vivo, rat
Method: (§1) Adjuvant arthritis. Male Lewis rats (150-200 g) were immunized at the base of the tail with 0.1 ml of complete Freund's adjuvant (CFA) on day 0. […] Clinical signs of arthritis generally begin on day 10, and paw swelling was determined every second day by water displacement plethysmometry. […] Prior to daily drug delivery, rats were individually assessed for ability to walk and bear weight on their hind paws. On the day of sacrifice, a probe with a 24 gm bending force was applied to the lateral ankle of each hind paw for 4 s. Animals were graded (0/1) on whether they vocalized. Roentgenograms were obtained of the hind paws to assess bone changes using a semi-quantitative scoring system (demineralization (0 to 2+), ankle and mid-foot erosions (0 to 2+), calcaneal erosion (0 to 1+), heterotopic bone formation (0 to 1+) (maximum possible score=6). Paws were fixed in formalin and decalcified for 2-3 days. Sections from paraffin embedded tissue were stained with hematoxylin and eosin. A synovial inflammation score was determined using a semi-quantitative scale that measures synovial inflammation (0-2+), cartilage integrity (0-2+), bone erosions (0-2+), marrow infiltration (0-2+), proteoglycans loss (0-2+ in safranin 0 stained sections) and extra-articular inflammation (0-2+) (maximum score 12). Subjective assessments were made by an investigator blinded to the drug treatment.

[2] = system: rats with adjuvant arthritis; test: Adjuvant arthritis: paw swelling by water displacement plethysmometry; type: in vivo, rat
Method: […] Paw swelling was measured by water displacement plethysmometry.
(§2) Intrathecal (IT) catherization of rats. All animals were handled in accordance with USDA guidelines, and all procedures have been carefully reviewed and approved by the institutional animal subjects committee. Rats (200-300 g) were housed for at least one week before use. Isoflurane anesthesia was used for all surgical procedures. Animals were implanted with an intrathecal (IT) catheter modified from the method previously described. Yaksh, et al. Physiol. Behav. 17:1031-6, 1976. After a six day recovery period, all animals except those that appeared to have sensory or motor abnormalities (less than 5% of the total number) were used for experiments. For IT administration, 10 μl of drug or vehicle followed by 10 μl of isotonic saline was injected through the catheter.
as §1

[3] = system: rats with adjuvant arthritis; test: Adjuvant arthritis: behavioral pain (vocalization to 24 gm ankle pressure); type: in vivo, rat; conditions: 24 gm bending force to lateral ankle for 4 s on day 20
Text: The effect of IT SB203580 on the clinical manifestations of adjuvant arthritis was examined. […] Paw swelling was inversely correlated with behavioral analysis as determined by weight bearing in hind limbs.
as §2
Adjuvant arthritis. Male Lewis rats (150-200 g) were immunized at the base of the tail with 0.1 ml of complete Freund's adjuvant (CFA) on day 0. […] Clinical signs of arthritis generally begin on day 10, and paw swelling was determined every second day by water displacement plethysmometry. […] Prior to daily drug delivery, rats were individually assessed for ability to walk and bear weight on their hind paws. […]

[4] = system: synovial IL-1, IL-6 and MMP3 gene expression; test: Adjuvant arthritis: joint gene expression by quantitative real time PCR; type: in vivo, rat; conditions: intrathecal 8 μg daily day 8-20 vs IT saline, hind paws
Method: Rats were immunized with CFA on day 0 and treated daily with intrathecal SB203580 (8 μg) or intrathecal saline beginning on day 8-20. (A) Quantitative real time PCR was performed on the hind paws. Normal rat joints are also shown as a control.
Q-PCR. Ankle joints were excised and trimmed of skin. The tissue was then pulverized and RNA extracted using RNA-STAT-60 and standard techniques. The RNA was reversed transcribed into cDNA using random hexamer primers. TaqMan PCR amplification reactions were carried out in reaction volumes of 25 μl in MicroAmp Optical Plates and MicroAmp Optical Caps using the TaqMan Universal Master Mix with a Perkin Elmer 5700 thermal cycler. Each sample was analyzed in triplicate using 50 ng of cDNA in the reaction. Thermal cycling was initiated with a 2 min incubation at 50° C., followed by 10 min at 95° C. to activate the AmpliTaq polymerase and then 40 cycles of 95° C. for 15 s/60° C. for 1 min. GADPH was used as a loading control for in each sample. The standard curve method was used for quantification as previously described. Boyle, et al. Arthritis Res. Ther. 5:R352-360, 2003.

[5] = system: rats with adjuvant arthritis; test: Adjuvant arthritis: histologic joint damage, semiquantitative score; type: in vivo, rat
Method: Rats were immunized with CFA on day 0 and treated daily with intrathecal SB203580 (8 μg) or intrathecal saline beginning on day 8-20. Left panel is vehicle and right panel is SB203580. […] Representative sections are shown illustrating decreased erosions, cartilage damage and synovial inflammation in the treated group.
Adjuvant arthritis. Male Lewis rats (150-200 g) were immunized at the base of the tail with 0.1 ml of complete Freund's adjuvant (CFA) on day 0. Drug (IT or subcutaneous SB203580 or IT vehicle) treatment started on day 8 and continued on a daily basis until day 20. Clinical signs of arthritis generally begin on day 10, and paw swelling was determined every second day by water displacement plethysmometry. […] Prior to daily drug delivery, rats were individually assessed for ability to walk and bear weight on their hind paws. On the day of sacrifice, a probe with a 24 gm bending force was applied to the lateral ankle of each hind paw for 4 s. Animals were graded (0/1) on whether they vocalized. […]

[6] = intrathecal etanercept 100 or 300 μg q.o.d.

Molecule	Allodynia (spinal nerve ligation)	Increase in spinal cord P-p38 / p38 activation (spinal nerve ligation)	Increase in spinal cord P-p38 / p38 activation (spinal nerve ligation; listed as etanercept)	Radiographic evidence of joint destruction [1, 6]	Paw swelling [2, 6]	Paw swelling ([2]; subcutaneous 50 μg every other day from day 1, day 20) [mL]	Paw swelling ([2]; subcutaneous 100 μg every other day from day 1, day 20) [mL]	Paw swelling ([2]; subcutaneous 300 μg every other day from day 1, day 20) [mL]	Paw swelling on day 20 ([2]; systemic treatment with the same doses as intrathecal)	Radiographic joint damage (bone erosions, cartilage loss, demineralization) ([1]; intrathecal 8 μg daily day 8-20, p<0.05)	Radiographic joint damage ([1]; systemic (subcutaneous) treatment, same dose 8 μg)	Positive vocalization (animals that vocalize / total number) ([3]; intrathecal (IT) SB203580 8 μg daily day 8-20)	Positive vocalization (animals that vocalize / total number) ([3]; subcutaneous (SC) SB203580 8 μg daily day 8-20)	Paw swelling ([2]; intrathecal 8 μg daily day 8-20, compared with IT saline or same dose subcutaneously)	Effect in adjuvant arthritis (paw swelling, synovial infiltration, joint destruction) ([2]; same dose (8 μg) delivered systemically (subcutaneous))	Synovial IL-1 gene expression [4]	Synovial IL-6 gene expression [4]	MMP3 gene expression ([4]; p<0.05)	Histologic joint damage and inflammation (semiquantitative score) ([5]; intrathecal 8 μg daily day 8-20 vs IT saline)	Leukocyte infiltration into synovium ([5]; intrathecal catheter administration)
Etanercept	inhibits	blocks	inhibits	significantly decreased	significantly decreased	1.51 ± 0.20	1.75 ± 0.18	1.67 ± 0.16	no effect	–	–	–	–	–	–	–	–	–	–	–
C[S+]([O-])c1ccc(-c2nc(-c3ccncc3)c(-c3ccc(F)cc3)[nH]2)cc1 (centres unmarked) [SB203580]	–	–	–	–	–	–	–	–	–	significantly decreased	no effect	0/6**	4/6	significantly decreased; also recorded: markedly suppressed	no effect	significantly decreased	significantly decreased	significantly decreased	significantly decreased	decreased
